Laboratory results reported in patent US20070219223A1, “Compositions and methods for treating respiratory disorders” (Endacea, Inc., priority 2006, published 2007).
Counter-ions that a name gives are not always drawn.

Assays:
[1] = tested on: allergic rabbits; settings: baseline BHR, aerosolized histamine, n=5
Procedure: All animals were anesthetized and intubated. All treatments were administered via an endotracheal tube with an ultrasonic nebulizer that produces aerosol droplets (80% are less than 5 μm). Dynamic compliance (Cdyn) was calculated from tidal volume and the difference in transpulmonary pressure (PTP) at zero flow (V). Total lung resistance (RT) was calculated as the ratio of PTP and V at […] lung volumes; these measurements are made automatically with the Buxco Respiratory Analyzer.

[2] = cited from earlier work
[3] = tested on: allergic rabbits; experiment: Adenosine provocation test after aerosol L-97-1 in allergic rabbits (PC50 of adenosine, lung compliance); type: in vivo, rabbit; settings: controls without L-97-1, aerosolized adenosine, n=9

NCCc1c[nH]cn1 [histamine]
PC50 for histamine (concentration of histamine to reduce lung compliance by 50%) [1]: 0.77 ± 0.28 mg/mL

OCc1cc(C(O)CNCCCCCCOCCCCc2ccccc2)ccc1O (stereo not drawn) [salmeterol xinafoate, salmeterol 1-hydroxy-2-napthoic acid salt]
Solubility in water [2]: sparingly soluble in water

Nc1ncnc2c1ncn2[C@@H]1O[C@H](CO)[C@@H](O)[C@H]1O [adenosine]
PC50 for adenosine (concentration of adenosine to reduce lung compliance by 50%) [3]: 3.24 ± 1.79 mg/mL
